ChEMBL document CHEMBL1201862, “PubChem BioAssay data set” (2004)
Activity calls are given as the source filed them.

Columns and labels:
[1] = alpha-synuclein stem-loop luciferase translation blockers – H4 neuroglioma cells, luminescence, confirmation (AID 1988); format: functional, cell-based
[2] = luciferase reporter signal suppression in cells – H4 neuroglioma cells, luminescence, dose response (AID 1990); format: functional, cell-based
[3] = Luminescence Cell-Based Dose Response HTS to Identify Inhibitors of 5'UTR Stem-Loop Driven Prion Protein mRNA Translation in H4 Neuroglioblastoma Cells. [Related pubchem assays: 1827 (Project Summary), 1813 (Primary HTS)]; format: functional
[4] = target: T1, Corticotropin-releasing factor receptor 2/Corticotropin-releasing factor-binding protein (Homo sapiens, UniProt P24387+Q13324); assay: activators of CRF receptor 2 with binding protein – uHTS hits, confirmation (AID 602473); format: functional; settings: read-out: EC50_Mean
T1 sequence (Q13324 whole entry): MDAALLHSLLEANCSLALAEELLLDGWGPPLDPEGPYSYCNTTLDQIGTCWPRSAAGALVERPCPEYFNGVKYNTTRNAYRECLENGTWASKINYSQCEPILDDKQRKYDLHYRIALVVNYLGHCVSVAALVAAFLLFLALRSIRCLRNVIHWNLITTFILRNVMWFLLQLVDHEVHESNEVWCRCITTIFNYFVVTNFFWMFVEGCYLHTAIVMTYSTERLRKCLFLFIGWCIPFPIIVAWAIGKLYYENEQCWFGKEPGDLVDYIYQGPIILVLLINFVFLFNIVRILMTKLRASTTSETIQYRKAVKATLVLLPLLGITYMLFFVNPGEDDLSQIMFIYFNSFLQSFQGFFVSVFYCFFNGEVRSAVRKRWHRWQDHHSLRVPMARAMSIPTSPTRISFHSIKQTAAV
T1 sequence (P24387 whole entry): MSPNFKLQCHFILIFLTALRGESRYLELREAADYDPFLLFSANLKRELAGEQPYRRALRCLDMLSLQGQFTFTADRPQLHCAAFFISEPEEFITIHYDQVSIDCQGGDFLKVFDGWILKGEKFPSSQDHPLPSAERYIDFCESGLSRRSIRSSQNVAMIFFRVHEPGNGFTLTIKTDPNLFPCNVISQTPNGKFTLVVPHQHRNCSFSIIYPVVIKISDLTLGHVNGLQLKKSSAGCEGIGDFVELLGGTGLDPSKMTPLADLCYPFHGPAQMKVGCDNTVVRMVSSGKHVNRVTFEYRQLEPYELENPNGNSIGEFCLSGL

Cytochrome P450 3A4 = Cytochrome P450 3A4 (Homo sapiens, UniProt P08684);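 note: CYP3A4 tested as one member of a cytochrome P450 panel screen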
Chain of Cytochrome P450 3A4 (P08684 whole entry): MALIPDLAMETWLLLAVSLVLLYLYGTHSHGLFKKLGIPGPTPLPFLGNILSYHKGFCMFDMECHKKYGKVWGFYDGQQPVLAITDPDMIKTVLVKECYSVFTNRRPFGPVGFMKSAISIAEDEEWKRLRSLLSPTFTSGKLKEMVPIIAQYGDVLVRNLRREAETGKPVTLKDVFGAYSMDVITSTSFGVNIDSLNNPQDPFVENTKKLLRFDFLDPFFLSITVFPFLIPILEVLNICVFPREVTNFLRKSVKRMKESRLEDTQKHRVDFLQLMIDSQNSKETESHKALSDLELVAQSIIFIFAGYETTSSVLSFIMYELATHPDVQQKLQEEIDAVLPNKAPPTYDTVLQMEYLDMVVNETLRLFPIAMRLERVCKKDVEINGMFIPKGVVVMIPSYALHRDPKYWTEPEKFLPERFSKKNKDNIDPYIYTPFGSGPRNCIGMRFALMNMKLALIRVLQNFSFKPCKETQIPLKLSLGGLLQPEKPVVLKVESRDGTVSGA

Cytochrome P450 2C9 = Cytochrome P450 2C9 (Homo sapiens, UniProt P11712)
Chain of Cytochrome P450 2C9 (P11712 whole entry): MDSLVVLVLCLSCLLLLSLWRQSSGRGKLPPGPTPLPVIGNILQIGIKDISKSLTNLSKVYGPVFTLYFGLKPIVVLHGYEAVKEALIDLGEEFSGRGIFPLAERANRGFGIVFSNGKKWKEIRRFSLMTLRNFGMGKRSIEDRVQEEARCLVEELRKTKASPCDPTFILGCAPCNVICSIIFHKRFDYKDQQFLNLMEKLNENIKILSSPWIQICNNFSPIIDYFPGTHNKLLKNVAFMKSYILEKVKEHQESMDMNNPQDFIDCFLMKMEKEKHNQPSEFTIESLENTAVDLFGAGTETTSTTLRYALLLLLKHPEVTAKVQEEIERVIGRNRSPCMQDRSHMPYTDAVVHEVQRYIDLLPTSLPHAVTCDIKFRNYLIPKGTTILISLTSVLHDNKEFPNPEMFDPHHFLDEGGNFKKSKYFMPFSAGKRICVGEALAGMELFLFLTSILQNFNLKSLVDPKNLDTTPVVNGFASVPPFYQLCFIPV

Cytochrome P450 1A2 = target: T2, Cytochrome P450 1A2 (Homo sapiens, UniProt P05177);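 note: PubChem cytochrome P450 panel assay, CYP1A2 panel member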
T2 sequence (P05177 whole entry): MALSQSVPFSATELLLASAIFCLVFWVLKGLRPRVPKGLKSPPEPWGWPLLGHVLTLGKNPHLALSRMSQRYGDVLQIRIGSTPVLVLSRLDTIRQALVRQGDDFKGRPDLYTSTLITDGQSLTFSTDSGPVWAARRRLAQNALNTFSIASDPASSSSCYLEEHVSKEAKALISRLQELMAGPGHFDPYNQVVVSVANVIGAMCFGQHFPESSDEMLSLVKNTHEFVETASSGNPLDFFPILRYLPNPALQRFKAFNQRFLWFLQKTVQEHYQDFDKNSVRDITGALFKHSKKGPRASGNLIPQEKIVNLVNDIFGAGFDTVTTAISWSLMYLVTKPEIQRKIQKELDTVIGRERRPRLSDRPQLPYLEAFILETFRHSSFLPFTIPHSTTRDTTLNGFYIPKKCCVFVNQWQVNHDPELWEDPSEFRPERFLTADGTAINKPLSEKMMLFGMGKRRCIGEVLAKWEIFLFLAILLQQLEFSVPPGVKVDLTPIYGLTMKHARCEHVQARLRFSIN

Cytochrome P450 2C19 = Cytochrome P450 2C19 (Homo sapiens, UniProt P33261); assay: Cytochrome panel assay with activity outcomes. Panel member name: p450-cyp2c19 Compounds with AC50 equal or less than 10 uM are considered active; format: functional
Chain of Cytochrome P450 2C19 (P33261 whole entry): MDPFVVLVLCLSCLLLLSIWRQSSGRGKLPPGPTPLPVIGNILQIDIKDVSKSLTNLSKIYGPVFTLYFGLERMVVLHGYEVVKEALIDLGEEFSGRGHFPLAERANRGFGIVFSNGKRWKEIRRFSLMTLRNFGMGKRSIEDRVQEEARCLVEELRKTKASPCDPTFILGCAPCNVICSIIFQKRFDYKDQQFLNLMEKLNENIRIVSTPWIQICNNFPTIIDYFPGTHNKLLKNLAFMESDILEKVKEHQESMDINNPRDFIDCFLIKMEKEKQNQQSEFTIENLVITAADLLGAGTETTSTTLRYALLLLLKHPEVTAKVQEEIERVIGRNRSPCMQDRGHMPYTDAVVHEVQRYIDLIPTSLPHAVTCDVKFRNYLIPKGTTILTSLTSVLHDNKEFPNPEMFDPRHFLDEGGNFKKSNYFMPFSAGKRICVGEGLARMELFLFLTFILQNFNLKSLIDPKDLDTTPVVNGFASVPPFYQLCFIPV

Cytochrome P450 2D6 = Cytochrome P450 2D6 (Homo sapiens, UniProt P10635);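 note: CYP2D6 member of a cytochrome P450 panel assay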
Chain of Cytochrome P450 2D6 (P10635 whole entry): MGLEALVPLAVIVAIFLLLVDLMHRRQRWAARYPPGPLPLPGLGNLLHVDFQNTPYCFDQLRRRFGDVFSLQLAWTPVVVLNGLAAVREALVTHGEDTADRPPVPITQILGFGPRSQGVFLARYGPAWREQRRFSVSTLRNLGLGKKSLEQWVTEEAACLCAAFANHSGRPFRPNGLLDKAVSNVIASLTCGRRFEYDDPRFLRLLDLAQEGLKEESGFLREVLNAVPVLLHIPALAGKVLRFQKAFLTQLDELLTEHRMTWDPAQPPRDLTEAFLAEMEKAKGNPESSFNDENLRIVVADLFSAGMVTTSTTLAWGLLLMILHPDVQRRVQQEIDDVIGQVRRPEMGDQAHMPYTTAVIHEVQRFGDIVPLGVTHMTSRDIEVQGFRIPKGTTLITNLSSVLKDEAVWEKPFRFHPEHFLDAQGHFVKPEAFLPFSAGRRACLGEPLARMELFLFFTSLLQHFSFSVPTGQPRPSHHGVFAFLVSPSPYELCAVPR

For `Cc1ccccc1NC(=O)NC1(C(=O)N2CCOCC2)CCCCC1`, the EC50 [1] was > 120 µM (not active), the EC50 [2] was > 120 µM (not active) and the EC50 [3] was > 120 µM (not active).

For `Cc1cc(C)c(OCC(=O)Nc2ccccc2N2CCOCC2)c(C)c1`, the EC50 [4] was > 53 µM (inactive).

For `O=C(Nc1cc(C(F)(F)F)ccc1Cl)C(Sc1cccc[n+]1[O-])c1ccccc1` (stereo unspecified), the EC50 [4] was > 53 µM (inactive).

With `CCOC(=O)c1c(C)n(C)c2ccc(OC)c(NS(=O)(=O)c3ccc(Cl)s3)c12` the AC50 (Cytochrome P450 3A4) was 1.58 µM (inconclusive), the AC50 (Cytochrome P450 2C9) was 3.16 µM (inconclusive) and the AC50 (Cytochrome P450 1A2) was 5.62 µM (inconclusive).

For `CCCNS(=O)(=O)c1ccc(Oc2ncc(C(F)(F)F)cc2Cl)cc1`, the EC50 [4] was > 53 µM (inactive).

For `COc1ccc([N+](=O)[O-])cc1COc1ccc2c(-c3ccccc3)cc(=O)oc2c1`, the AC50 (Cytochrome P450 2C19; read-out: AC50) was 3.55 µM (inconclusive).

In the case of `COc1ccc(NC(=O)c2cc(S(=O)(=O)N3CCCCC3)c[nH]2)cc1Cl`, the EC50 [1] is reported as > 120 µM (not active), the EC50 [2] is reported as 23.7 µM (active) and the EC50 [3] is reported as 18.4 µM (active).

For `O=C1c2ccccc2NC(c2ccc(F)cc2)N1Cc1ccco1` (stereo unspecified), the AC50 (Cytochrome P450 3A4) was 14.1 µM (inconclusive) and the AC50 (Cytochrome P450 2D6) was 0.398 µM (inconclusive).

For `O=C(NCC(c1ccco1)N1CCCC1)c1cc2cc(Cl)ccc2o1` (stereo unspecified), the EC50 [4] was > 53 µM (inactive).

In the case of `Cc1ccc(NC(=O)CN2CCC(NC(=O)c3cccc(F)c3)CC2)cc1C`, the EC50 [1] is reported as > 120 µM (not active), the EC50 [2] is reported as > 120 µM (not active) and the EC50 [3] is reported as 21.6 µM (active).

With `CCOc1cc2[nH]c(=O)n(CCC(=O)NCc3ccc(OC)cc3)c(=O)c2cc1OCC` the AC50 (Cytochrome P450 2C9) was 2 µM (inconclusive).

For `c1ccc(-c2ccc(N3CC4(CCNCC4)C3)cc2)cc1`, the AC50 (Cytochrome P450 3A4) was 25.1 µM (inconclusive) and the AC50 (Cytochrome P450 2D6) was 25.1 µM (inconclusive).

With `CCCCC#Cc1nc(N)c2ncn([C@@H]3O[C@@H](C(=O)NCC)[C@H](O)[C@@H]3O)c2n1` the AC50 (Cytochrome P450 3A4) was 15.8 µM (inconclusive), the AC50 (Cytochrome P450 2C19; read-out: AC50) was 39.8 µM (inconclusive) and the AC50 (Cytochrome P450 2C9) was 25.1 µM (inconclusive).

In the case of `CCc1ccc(NC(=O)C(CC)c2ccccc2)cc1` (stereo unspecified), the EC50 [4] is reported as 10.4 µM (active).

In the case of `Cc1cc2cccc(C)c2nc1SCC(=O)N(C)c1nc(-c2ccccc2)cs1`, the AC50 (Cytochrome P450 2C9) is reported as 2.82 µM (inconclusive).

In the case of `O=C1c2ccccc2C(=O)N1CC1CCCO1` (stereo unspecified), the AC50 (Cytochrome P450 2C19; read-out: AC50) is reported as 0.355 µM (inconclusive) and the AC50 (Cytochrome P450 2C9) is reported as 0.398 µM (inconclusive).

In the case of `COc1ccc(-n2c(=O)c(CCc3ccccc3)nc3cnc(OC)nc32)cc1`, the AC50 (Cytochrome P450 2D6) is reported as 20 µM (inconclusive) and the AC50 (Cytochrome P450 2C9) is reported as 7.94 µM (inconclusive).

With `COc1cccc(NC(=O)Cc2c(C(=O)O)[nH]c3ccccc23)c1` the AC50 (Cytochrome P450 3A4) was 15.8 µM (inconclusive) and the AC50 (Cytochrome P450 2C9) was 22.4 µM (inconclusive).

For `CC(=O)Nc1ccc(S(=O)(=O)NC(CC(=O)NCCC2=CCCCC2)C(C)C)cc1` (stereo unspecified), the AC50 (Cytochrome P450 2D6) was 0.708 µM (inconclusive) and the AC50 (Cytochrome P450 2C9) was 8.91 µM (inconclusive).

For `COc1ccc(CNC(=O)[C@H]2C[C@@H]2[C@H](NP(=O)(c2ccccc2)c2ccccc2)c2ccccc2)cc1OC`, the AC50 (Cytochrome P450 2C9) was 25.1 µM (inconclusive).

With `COC(=O)[C@@H](NC(=O)Nc1ccc(C(C)=O)cc1)C(C)C` the AC50 (Cytochrome P450 2C9) was 3.55 µM (inconclusive).

In the case of `CNc1ncncc1-c1ccccc1CN(C)C`, the AC50 (Cytochrome P450 2C19) is reported as “inconclusive”.

For `NCOC(=O)Cc1ccc(Br)cc1`, the AC50 (Cytochrome P450 1A2) was 0.2 µM (active).

With `COC(=O)N1CCC2(CCCN(Cc3ccc(C#N)cc3)C2)CC1` the AC50 (Cytochrome P450 3A4) was 15.8 µM (inconclusive) and the AC50 (Cytochrome P450 2C19; read-out: AC50) was 7.94 µM (inconclusive).

In the case of `CC(=O)OC[C@H]1O[C@@H](O/N=C2/[C@H]3O[C@@H]3[C@@H](O)[C@H]3[C@H]2CCn2c(=O)n(-c4ccccc4)c(=O)n23)[C@H](OC(C)=O)[C@@H](OC(C)=O)[C@@H]1OC(C)=O`, the AC50 (Cytochrome P450 2D6) is reported as 3.16 µM (inconclusive) and the AC50 (Cytochrome P450 2C19) is reported as “inconclusive”.

For `COc1cccc(Cn2c(=O)c(C)nc3cnc(Nc4ccccc4)nc32)c1`, the AC50 (Cytochrome P450 2D6) was 1 µM (inconclusive).

For `Cc1cc(C)c(/C=C2/C(=O)Nc3ccccc32)[nH]1`, the AC50 (Cytochrome P450 2D6) was 0.398 µM (inconclusive) and the AC50 (Cytochrome P450 2C9) was 2.51 µM (inconclusive).
